# “Also recorded” adds a separate entry of the source. Counter-ions that a name gives are not always drawn.
# Columns and labels:
# SGLT1 [1] = molecular target: T1, SGLT1 (Homo sapiens, UniProt P13866); assay: SGLT1 inhibition assay for validation of screening hits and similar compounds (1‐NBD‐glucose uptake, CHO‐hSGLT1 cells); format: cell-based; set-up: activity: dose or concentration left out as unconfirmed; conditions: for IC50: 1‐NBD‐glucose uptake, CHO‐hSGLT1, mean of n biological replicates, or individual measurements where n=2, read-out: SGLT1‐IC50 Mean; for SGLT1/2 inhibition stated in words: SGLT1 and/or SGLT2, discussion statements; for inhibition at 50 µM: mean inhibition with 50 μmol/L inhibitor, read-out: SGLT1 inhibition; for remaining activity at 5 µM / remaining activity at 50 µM: 0.5 h, concentration not given, read-out: NORMALIZED SGLT1 ACTIVITY (%)
# T1 sequence (P13866 1-664): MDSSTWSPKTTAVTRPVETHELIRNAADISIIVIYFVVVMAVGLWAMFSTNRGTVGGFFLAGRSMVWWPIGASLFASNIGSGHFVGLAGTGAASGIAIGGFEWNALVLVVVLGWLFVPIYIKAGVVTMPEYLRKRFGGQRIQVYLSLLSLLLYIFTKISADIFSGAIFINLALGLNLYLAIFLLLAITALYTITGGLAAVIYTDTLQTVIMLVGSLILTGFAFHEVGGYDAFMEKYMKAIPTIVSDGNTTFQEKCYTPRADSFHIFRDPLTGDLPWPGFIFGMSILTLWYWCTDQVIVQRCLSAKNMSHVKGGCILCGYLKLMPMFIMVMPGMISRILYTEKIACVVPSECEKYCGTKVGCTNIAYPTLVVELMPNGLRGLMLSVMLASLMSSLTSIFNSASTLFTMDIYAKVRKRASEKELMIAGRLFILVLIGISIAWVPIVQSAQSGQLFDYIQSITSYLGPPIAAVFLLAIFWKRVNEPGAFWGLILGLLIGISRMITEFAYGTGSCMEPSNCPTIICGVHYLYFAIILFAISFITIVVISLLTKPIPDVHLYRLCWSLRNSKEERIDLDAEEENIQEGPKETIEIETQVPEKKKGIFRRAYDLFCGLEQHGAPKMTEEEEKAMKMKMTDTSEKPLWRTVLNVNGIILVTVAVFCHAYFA
# hSGLT2 [2] = molecular target: T2, hSGLT2 (Homo sapiens, UniProt P31639); assay: SGLT2 inhibition assay for validation of screening hits and similar compounds (1‐NBD‐glucose uptake, CHO‐hSGLT2 cells); format: cell-based; set-up: activity: dose or concentration left out as unconfirmed; conditions: for IC50: 1‐NBD‐glucose uptake, CHO‐hSGLT2, mean of n biological replicates, or individual measurements where n=2, read-out: SGLT2‐IC50 Mean; for inhibition at 50 µM: mean inhibition with 50 μmol/L inhibitor; for remaining activity at 5 µM / remaining activity at 50 µM: 0.5 h, concentration not given, read-out: NORMALIZED SGLT2 ACTIVITY (%)
# T2 sequence (P31639 1-672): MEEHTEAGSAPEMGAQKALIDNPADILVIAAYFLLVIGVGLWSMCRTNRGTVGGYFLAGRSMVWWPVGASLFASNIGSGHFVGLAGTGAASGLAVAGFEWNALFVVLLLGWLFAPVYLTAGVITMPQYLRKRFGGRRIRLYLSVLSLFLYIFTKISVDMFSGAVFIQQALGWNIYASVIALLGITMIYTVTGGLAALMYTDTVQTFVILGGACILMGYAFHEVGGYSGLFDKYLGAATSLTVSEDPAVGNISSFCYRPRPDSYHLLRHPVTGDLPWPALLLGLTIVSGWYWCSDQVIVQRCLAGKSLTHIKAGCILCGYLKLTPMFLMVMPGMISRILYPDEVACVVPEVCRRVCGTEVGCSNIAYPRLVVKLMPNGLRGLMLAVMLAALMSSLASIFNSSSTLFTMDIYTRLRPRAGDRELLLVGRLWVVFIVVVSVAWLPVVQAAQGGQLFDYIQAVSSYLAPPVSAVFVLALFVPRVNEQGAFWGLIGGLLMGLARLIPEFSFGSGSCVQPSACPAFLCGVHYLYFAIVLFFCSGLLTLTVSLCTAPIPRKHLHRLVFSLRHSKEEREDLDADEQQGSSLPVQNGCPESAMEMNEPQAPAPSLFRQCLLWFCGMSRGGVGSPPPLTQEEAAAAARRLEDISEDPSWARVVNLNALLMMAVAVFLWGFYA
# transporters = tested on: transporters; set-up: method as in earlier work; conditions: known transporter targets, per category of inhibited transporters; cited from earlier work
# CHO‐hSGLT1/2 cells = assay: Cytotoxicity assay (ToxiLight, adenylate kinase leakage into CHO‐SGLT1/2 inhibition assay media); set-up: CYTOTOXICITY / CY[…], mean / CYTOTOXICITY (% of vehicle control) Mean / CYTOTOXICITY, mean / CY[…] (% of vehicle control) Mean: dose or concentration left out as unconfirmed; conditions: mean;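 further: bioluminescent read-out of adenylate kinase released from lysed cells into the medium, given relative to DMSO vehicle control defined as 0%, higher meaning more cytolysis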
# Protocol: The cytotoxicity of representative SGLT1/2 inhibitors and compounds from the different chemical clusters was tested. Cytotoxicity was determined using the ToxiLight bioassay kit according to the supplier's instructions. This nondestructive assay measures leakage of the enzyme adenylate kinase (AK) from damaged cells into the CHO‐SGLT1/2 inhibition assay media, ie the degree of cytolysis. […] Next, bioluminescence was measured using a FlexStation 3 Multi‐Mode Microplate Reader (Molecular Devices) by 1 second integrated reading. Cytotoxicity was expressed as the percentage of bioluminescence of the DMSO vehicle control which was set at 0%. If applicable, statistical outliers were determined using Grubbs’ test (alpha = 0.05) and excluded for calculation of the mean ± SD.
# hSGLT2 [3] = molecular target: T2, hSGLT2; assay: cell-based; set-up: host or cells: CHO-K1; conditions: CHO, read-out: % of control remaining
# SGLT1 [4] = molecular target: T1, SGLT1; assay: cell-based; set-up: host or cells: CHO-K1; conditions: CHO, read-out: % of control remaining
structure (smiles),measurement,setting,value
"CC(C)COCC(CN(Cc1ccccc1)c1ccccc1)N1CCCC1 (stereo not drawn) [Bepridil, bepridil, reference compound]",IC50,SGLT1 [1],10 µM
same,SGLT1/2 inhibition stated in words,SGLT1 [1],showed SGLT1/2 inhibition
same,inhibition at 50 µM,SGLT1 [1],74%
same,IC50,hSGLT2 [2],14 µM
same,inhibition at 50 µM,hSGLT2 [2],70%
same,INHIBITED TRANSPORTERS,transporters,"CACNA1A, CACNA1H, CACNA2D2, KCNH2, KCNQ1, KCNH2"
CC(=O)OC[C@H]1O[C@@H](O[C@@H]2[C@@H](O)[C@H](O[C@@H]3[C@H](O)C(C)(C)C[C@H]4C5=CC[C@@H]6[C@@]7(C)CC[C@H](O[C@@H]8O[C@H](C(=O)O)[C@@H](O)[C@H](O)[C@H]8O[C@@H]8O[C@H](CO)[C@H](O)[C@H](O)[C@H]8O[C@@H]8O[C@H](CO)[C@@H](O)[C@H](O)[C@H]8O)[C@](C)(CO)[C@@H]7CC[C@@]6(C)[C@]5(C)CC[C@@]34C)OC[C@@H]2O)[C@H](OC(C)=O)[C@@H](OC(C)=O)[C@@H]1OC(C)=O [Soyasaponin Ab],CYTOTOXICITY,CHO‐hSGLT1/2 cells,5
same,remaining activity at 5 µM,hSGLT2 [3],106%
same,remaining activity at 50 µM,hSGLT2 [3],96.8%
same,remaining activity at 5 µM,SGLT1 [4],104%
same,remaining activity at 50 µM,SGLT1 [4],104%
CN1[C@@H]2CC[C@H]1C[C@@H](OC(c1ccccc1)c1ccccc1)C2 [benztropine],INHIBITED TRANSPORTERS,transporters,"SLC6A2, SLC6A3, SCN10A"
"CCCCN1CCCCC1C(=O)Nc1c(C)cccc1C (stereo not drawn) [Bupivacaine, bupivacaine, reference compound]",IC50,SGLT1 [1],23 µM
same,SGLT1/2 inhibition stated in words,SGLT1 [1],novel SGLT1/2 inhibitors
same,inhibition at 50 µM,SGLT1 [1],64%
same,IC50,hSGLT2 [2],43 µM
same,INHIBITED TRANSPORTERS,transporters,SCN10A
"C=C[C@H]1C[N@@]2CC[C@H]1C[C@H]2[C@H](O)c1ccnc2ccc(OC)cc12 [quinine, reference compound]",remaining activity at 5 µM,SGLT1 [1]; mean,101%
same,remaining activity at 50 µM,SGLT1 [1]; mean,76%
same,inhibition at 50 µM,SGLT1 [1],24%
same,remaining activity at 5 µM,hSGLT2 [2]; mean,92%
same,remaining activity at 50 µM,hSGLT2 [2]; mean,66%
same,inhibition at 50 µM,hSGLT2 [2],34%
same,INHIBITED TRANSPORTERS,transporters,"SLC22A1, SLC22A2, SLC22A5, SLCO1A2, SLC22A4"
"C=C[C@H]1C[N@@]2CC[C@H]1C[C@@H]2[C@@H](O)c1ccnc2ccc(OC)cc12 [Quinidine, quinidine, reference compound]",IC50,SGLT1 [1],62 µM
same,remaining activity at 5 µM,SGLT1 [1]; mean,93%
same,remaining activity at 50 µM,SGLT1 [1]; mean,50%
same,inhibition at 50 µM,SGLT1 [1],50%
same,IC50,hSGLT2 [2],56 µM
same,remaining activity at 5 µM,hSGLT2 [2]; mean,92%
same,remaining activity at 50 µM,hSGLT2 [2]; mean,51%
same,inhibition at 50 µM,hSGLT2 [2],49%
same,INHIBITED TRANSPORTERS,transporters,"SLC22A1, SLC22A2, SLC22A5, SLCO1A2, SLC22A4; also recorded: SLC22A8, SLCO1B1"
"CCCN1CCCC[C@H]1C(=O)Nc1c(C)cccc1C [ropivacaine, reference compound]",SGLT1/2 inhibition stated in words,SGLT1 [1],novel SGLT1/2 inhibitors
same,inhibition at 50 µM,SGLT1 [1],30%
same,INHIBITED TRANSPORTERS,transporters,SCN10A
CC=C(C)C(=O)O[C@H]1[C@@H](OC(=O)CC(C)C)c2c(ccc3ccc(=O)oc23)OC1(C)C [praeruptorin E],CYTOTOXICITY (% of vehicle control) Mean,CHO‐hSGLT1/2 cells,-1.25 % of vehicle control
same,SGLT2/SGLT1‐50μmol/L (ratio of SGLT2 to SGLT1 activities with 50 μmol/L inhibitor),SGLT1 [1],3.1
same,activity,"SGLT1 [1]; compound, mean, normalized 1-NBD-glucose uptake, CHO-hSGLT1 cells",73%
same,activity,"hSGLT2 [2]; compound, mean, normalized 1-NBD-glucose uptake, CHO-hSGLT2 cells",123%
same,SGLT2/SGLT1 ACTIVITY RATIO 5 uM Mean,hSGLT2 [2]; ratio of normalized SGLT2 to SGLT1 activity at 5 uM,1.7
Oc1c(Br)cc(Cl)c2cccnc12 [7-Bromo-5-chloro-8-hydroxyquinoline],CYTOTOXICITY,CHO‐hSGLT1/2 cells,14
same,remaining activity at 5 µM,SGLT1 [1]; mean,103%
same,remaining activity at 50 µM,SGLT1 [1]; mean,45%
same,remaining activity at 5 µM,hSGLT2 [2]; mean,92%
same,remaining activity at 50 µM,hSGLT2 [2]; mean,78%
CCCN1CCCC[C@H]1C(=O)Nc1c(C)cccc1C [Ropivacaine HCl monohydrate],CY[…] 50 mM,CHO‐hSGLT1/2 cells; at 50 mM (so in the source),0.836
same,remaining activity at 5 µM,SGLT1 [1]; mean,97%
same,remaining activity at 50 µM,SGLT1 [1]; mean,70%
same,remaining activity at 5 µM,hSGLT2 [2]; mean,86%
same,remaining activity at 50 µM,hSGLT2 [2]; mean,67%

# From publication PMC6664820, “Novel natural and synthetic inhibitors of solute carriers SGLT1 and SGLT2” (Pharmacology Research & Perspectives, 2019)
